Assay results from patent publication US12037324B2, “Biarylmethyl heterocycles” (Université de Montréal, priority 2016, dated 2024).

Columns and labels:
hAT1R [1] = molecular target: T1, hAT1R (Homo sapiens, UniProt P30556); test: cell-based
T1 sequence (P30556 1-359): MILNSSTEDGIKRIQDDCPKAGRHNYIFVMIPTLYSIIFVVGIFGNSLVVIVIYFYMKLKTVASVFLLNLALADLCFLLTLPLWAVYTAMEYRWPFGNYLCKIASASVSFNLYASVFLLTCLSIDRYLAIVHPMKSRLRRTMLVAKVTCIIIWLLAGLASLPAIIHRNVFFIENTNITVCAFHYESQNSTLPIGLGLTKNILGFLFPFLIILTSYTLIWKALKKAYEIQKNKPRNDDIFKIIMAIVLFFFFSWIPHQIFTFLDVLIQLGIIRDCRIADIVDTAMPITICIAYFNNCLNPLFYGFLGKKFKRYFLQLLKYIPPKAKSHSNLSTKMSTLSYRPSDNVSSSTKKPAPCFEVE

hAT1R [2] = molecular target: T1, hAT1R; test: cell-based; details: agonist mode; for EC50: read-out: BRET P63 EC50
hAT1R [3] = molecular target: T1, hAT1R; test: BRET β-arrestin2 biosensor assay, higher receptor expression (hAT1R 5 ng/well), HEK293 cells; format: cell-based; details: for EC50: High AT1R Expression
AGTR1 [4] = molecular target: T2, AGTR1 (Homo sapiens, UniProt P30556); test: DiscoveRx β-arrestin2 recruitment assay (enzyme complementation, Pathunter CHO-K1 AGTR1 β-arrestin cell line); format: cell-based; details: DiscoveRx β-arrestin2 recruitment; for DiscoveRx β-arrestin2 Ymax (%): maximal response
T2 construct: host or cells: Pathunter CHO-K1 AGTR1 β-arrestin cell line (CHO-K1)
T2 sequence (P30556 1-359): T1 sequence (P30556 1-359)
Summary of the method: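 CHO-K1 cells expressing AGTR1 with β-arrestin2 enzyme-complementation reporter, plated 14-16 h ahead in 1% serum medium, then exposed to compounds for 90 min at 37° C. Chemiluminescence read after 1 h detection. EC50 (agonist) or IC50 (antagonist) from 4-parameter logistic fit; activity as percentage of All maximal effect.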

AGTR1 [5] = molecular target: T2, AGTR1; test: DiscoveRx IP1 accumulation assay (HTRF), agonist mode, Pathunter CHO-K1 AGTR1 β-arrestin cell line; format: cell-based; details: for EC50: read-out: IP-1 EC50
Summary of the method: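 Agonist mode in CHO-K1 AGTR1 β-arrestin cells plated 14-16 h before; compounds at varying concentrations for 90 min at 37° C, IP1 accumulation read by HTRF (D2-conjugate and anti-IP1 cryptate, 20 min room temperature). EC50 from 4-parameter logistic fit; activity given as percentage of maximal AII effect.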

[6] = section of the 42nd table ending at r951, example numbering restarts after the DiscoveRx section, read-out: β-arrestin2 EC50
[7] = Low AT1R Expression, read-out: BRET β-Arrestin2 Low AT1R Expression EC50

Structure (SMILES) | EC50 (hAT1R [1]; [6]) [nM] | BRET P63 Ymax (hAT1R [2]) [%] | EC50 (hAT1R [2]) [nM] | BRET β-Arrestin2 High AT1R Expression Ymax (%) (hAT1R [3]) | EC50 (hAT1R [3]) [nM] | EC50 (AGTR1 [4]) [nM] | DiscoveRx β-arrestin2 Ymax (%) (AGTR1 [4]) | IP-1 Ymax (%) (AGTR1 [5]) | EC50 (AGTR1 [5]) [nM] | BRET β-Arrestin2 Low AT1R Expression Ymax (%) (hAT1R [1]; Low AT1R Expression) | EC50 (hAT1R [1]; [7]) [nM]
CCc1nc2c(C)cc(C)nc2n1Cc1ccc(-c2cc(-c3ccccc3O)ccc2-c2nnn[nH]2)cn1 [Example 178] | 19.4 | 19.6 | 25.6 | 89.3 | 4.8 | 7.1 | 75.6 | 20.8 | 21.5 | – | –
CCc1nc2c(C)cc(C)nc2n1Cc1ccc(-c2cc(-c3cc(C)cc(C)c3)ccc2C(=O)O)cc1 [Example 181, 4″-((2-ethyl-5,7-dimethyl-3H-imidazo[4,5-b]pyridin-3-yl)methyl)-3,5-dimethyl-[1,1′:3′,1″-terphenyl]-4′-carboxylic acid] | 15.7 | 16.1 | 47.5 | 94.1 | 4.8 | 48 | 88.8 | 6.1 | 78.4 | – | –
CCc1nc2c(C)cc(C)nc2n1Cc1ccc(-c2cc(Oc3cc(C)ccn3)ccc2-c2nn[nH]n2)cc1 [Example 250] | 11 | 14.1 | 9.3 | 79.8 | 3.8 | 23 | 43.9 | 28.9 | 50.5 | – | –
CCCc1cn(-c2ccc(-c3nnn[nH]3)c(-c3ccc(Cn4c(CC)nc5c(C)cc(C)nc54)cc3)c2)nn1 [Example 228] | 210 | 11.4 | 125 | 93.1 | 31.9 | 30.4 | 32.1 | 13.0 | 147 | – | –
CCc1nc2c(C)cc(C)nc2n1Cc1ccc(-c2cc(-c3ccccc3)ccc2-c2nnn[nH]2)cn1 [Example 179] | 61.4 | 11.6 | 52.3 | 90.6 | 20.7 | 40.7 | 58.3 | 12.2 | 81.7 | – | –
CCc1nc2c(C)cc(C)nc2n1Cc1ccc(-c2cc(Oc3ccccn3)ccc2-c2nnn[nH]2)cc1 [Example 247, 2-Ethyl-5,7-dimethyl-3-((5′-(pyridin-2-yloxy)-2′-(1H-tetrazol-5-yl)-[1,1′-biphenyl]-4-yl)methyl)-3H-imidazo[4,5-b]pyridine] | 22.7 | – | > 10000 | 74.4 | 13.8 | 6.9 | 30.8 | – | > 100000 | – | –
CCc1nc2c(C)cc(C)nc2n1Cc1ccc(-c2cc(Oc3ccccc3)ccc2-c2nnn[nH]2)cc1 [Example 204, 2-Ethyl-5,7-dimethyl-3-((5′-phenoxy-2′-(1H-tetrazol-5-yl)-[1, 1′-biphenyl]-4-yl)methyl)-3H-imidazo[4,5-b]pyridine] | 9.8 | 9.4 | 10.7 | 85.9 | 3.6 | 26.4 | 42.4 | 14.4 | 66.8 | – | –
CCc1nc2c(C)cc(C)nc2n1Cc1ccc(-c2cc(Oc3cncnc3)ccc2-c2nnn[nH]2)cc1 [Example 258] | 81.9 | 17.5 | 140 | 75.7 | 41.5 | 23.1 | 35.2 | 15.1 | 42.8 | – | –
CCC1=NC2(CCCC2)C(=O)N1Cc1ccc(-c2cc(-c3ccccc3)ccc2-c2nn[nH]n2)cc1 [Example 112, 3-((6′-(2H-tetrazol-5-yl)-[1,1′:3′,1″-terphenyl]-4-yl)methyl)-2-ethyl-1,3-diazaspiro[4.4]non-1-en-4-one] | – | 8.2 | 46.8 | 78.5 | 30.6 | 124 | 33.4 | 7.7 | 284 | 39.3 | 174
CCc1nc2c(C)cc(C)nc2n1Cc1ccc(-c2cc(-c3cn(CC4CC4)nn3)ccc2-c2nnn[nH]2)cc1 [Example 237] | 112 | 21.1 | 60.5 | 84.4 | 16.3 | 55.3 | 62.3 | 13.7 | 79.7 | – | –
CCc1nc2c(C)cc(C)nc2n1Cc1ccc(-c2cc(-c3ccsn3)ccc2-c2nn[nH]n2)cc1 [Example 57] | – | 5.0 | 14.3 | 66.3 | 15.2 | 16.6 | 26.3 | – | > 100000 | 8.9 | 19.9
CCCCC1=NC2(CCOC2)C(=O)N1Cc1ccc(-c2cc(-c3ccccc3)ccc2-c2nnn[nH]2)cc1 (single isomer, unassigned) [Example 147, 3-((6′-(1H-tetrazol-5-yl)-[1,1′:3′,1″-terphenyl]-4-yl)methyl)-2-butyl-7-oxa-1,3-diazaspiro[4.4]non-1-en-4-one] | – | – | > 100000 | 66.6 | 126 | 107 | 23.0 | 3.6 | 178 | 26.1 | 109
CCc1nc2c(C)cc(C)nc2n1Cc1ccc(-c2cc(-c3cccc(C)c3)ccc2-c2nn[nH]n2)cc1 [Example 8] | – | 14.0 | 7.7 | 93.0 | 4.1 | 6 | 42.2 | 6.9 | 6 | 80.5 | 5.4
CCc1nc2c(C)cc(C)nc2n1Cc1ccc(-c2cc(-c3ccccc3)ccc2-c2noc(=O)[nH]2)cc1 [Example 32, 3-(4″-((2-ethyl-5,7-dimethyl-3H-imidazo[4,5-b]pyridin-3-yl)methyl)-[1,1′:3′,1″-terphenyl]-4′-yl)-1,2,4-oxadiazol-5(4H)-one] | – | 25.2 | 21.1 | 91.6 | 5.1 | 34.3 | 86.1 | 10.8 | 38.4 | 80.9 | 12.5
